Experiment [1] addresses EGFR D770_N771insNPG (Homo sapiens, UniProt P00533, INS770NPG). The experiment is described as follows: TR-FRET inhibition of kinase activity of EGFR exon 20 insertion mutation. Format: biochemical. The text has this: Determination of the Inhibitory Effect of the Compound of the Present Invention on the Kinase Activity of EGFR Exon 20 Insertion Mutation
Experimental objective: The objective of this test example is to determine the inhibitory effect of the compound on the kinase activity of EGFR exon 20 insertion mutation.
Experimental process: The experiment applied the TR-FRET (time-resolved fluorescence resonance energy transfer) method to study the inhibitory effect of the compound on the kinase activity of EGFR exon 20 insertion mutation. The experiment was carried out in a 384-well plate. Experimental buffer (50 mM HEPES, 1 mM EGTA, 10 mM MgCl2, 2 mM DTT, 0.01% Tween-20) was formulated. The compound was diluted in gradient to different concentrations with the experimental buffer. 2.5 μL of the solution was added to each well of the 384-well plate. 2.5 μL of diluted EGFR kinase solution (0.001-0.5 nM) was added, and the plate was incubated at room temperature for 10 minutes. 5 μL of ULight-poly GT/ATP mixed solution was added, and the plate was incubated at room temperature for 30 to 60 minutes. 5 μL of EDTA stop solution and 5 μL of Eu-labeled antibody detection solution were added, and the plate was incubated at room temperature for 1 hour.
(§1) Experimental Data Processing Method:
The concentration and inhibition rate were fitted to a nonlinear regression curve by Graphpad Prism software to obtain the IC50 value.

Experiment [2] concerns the target Ba/F3 EGFR-D770-N771ins_SVD (Homo sapiens, UniProt P00533, DUP768-770, cells depend on it). The experiment is described as follows: Proliferation of Ba/F3 EGFR mutant cell line (CellTiter-Glo). Format: cell-based, mouse. The conditions noted are these: 72 h to 144 h, read-out: Ba/F3 EGFR-D770-N771ins_SVD IC50. The procedure:
Determination of the Inhibitory Effect of the Compound of the Present Invention on the Proliferation of Ba/F3 EGFR Mutant Cell Line and A431 Cell Line
(§2) Experimental objective: The objective of this test example is to determine the inhibitory effect of the compound on the proliferation of Ba/F3 EGFR mutant cell line and A431 cell line
(§3) Experimental instruments: Microplate reader (BioTek Synergy H1), pipette (Eppendorf & Rainin).
Ba/F3 EGFR mutant cells were cultured, and harvested after reaching a suitable density. The cells were adjusted to an appropriate cell concentration with the complete medium. The cell suspension were spread on a 96-well plate (90 μL per well), and the plate was placed in a 37° C., 5% CO2 incubator overnight to let the cells adhere to the wall. Solutions of the compound at different concentrations were formulated with DMSO and culture medium. Solvent control was set. […] CellTiter-Glo solution was added and mixed well by shaking, and the plate was incubated in the dark for 10 minutes. The values were measured by BioTek Synergy H1 microplate reader.
as §1
(§4) The inhibition rate was calculated using the […] signal value. The concentration and inhibition rate were fitted to a nonlinear regression curve by Graphpad Prism software to obtain the IC50 value.

For experiment [3], the system named is A431 cell line. The experiment in a line: Proliferation of A431 cell line (CellTiter-Glo). Format: cell-based. The conditions noted are these: Homo sapiens, A-431, 72 h. As to the method: Test Example 3. Determination of the Inhibitory Effect of the Compound of the Present Invention on the Proliferation of Ba/F3 EGFR Mutant Cell Line and A431 Cell Line
as §2, §3
A431 cells were cultured, and harvested after reaching a suitable density. The cells were adjusted to an appropriate cell concentration with the complete medium. The cell suspension were spread on a 96-well plate (90 μL per well), and the plate was placed in a 37° C., 5% CO2 incubator overnight to let the cells adhere to the wall. Solutions of the compound at different concentrations were formulated with DMSO and culture medium. Solvent control was set. The solution of the compound was added to the 96-well plate ([…]), and the plate was incubated in the 37° C., 5% CO2 incubator for 72 h. CellTiter-Glo solution was added and mixed well by shaking, and the plate was incubated in the dark for 10 minutes. The values were measured by BioTek Synergy H1 microplate reader.
as §1, §4

Each structure is given as a SMILES string.

EGFR D770_N771insNPG, sequence (P00533 with tags, fused parts or gaps INS770NPG limits assumed): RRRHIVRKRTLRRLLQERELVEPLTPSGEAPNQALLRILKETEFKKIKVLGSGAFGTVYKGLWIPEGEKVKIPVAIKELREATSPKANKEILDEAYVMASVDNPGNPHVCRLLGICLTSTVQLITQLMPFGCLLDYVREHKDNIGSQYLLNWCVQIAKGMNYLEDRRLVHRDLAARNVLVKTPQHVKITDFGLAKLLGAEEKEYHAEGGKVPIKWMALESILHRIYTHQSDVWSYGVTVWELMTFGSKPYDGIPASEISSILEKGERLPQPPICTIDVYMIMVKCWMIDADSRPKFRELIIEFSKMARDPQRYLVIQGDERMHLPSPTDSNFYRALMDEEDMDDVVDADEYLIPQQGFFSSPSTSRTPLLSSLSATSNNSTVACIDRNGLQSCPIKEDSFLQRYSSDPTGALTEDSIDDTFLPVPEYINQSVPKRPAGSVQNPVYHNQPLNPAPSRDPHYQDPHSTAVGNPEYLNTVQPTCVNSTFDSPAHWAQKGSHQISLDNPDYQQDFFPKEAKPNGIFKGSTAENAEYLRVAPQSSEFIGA
Ba/F3 EGFR-D770-N771ins_SVD, sequence (P00533 with tags, fused parts or gaps DUP768-770): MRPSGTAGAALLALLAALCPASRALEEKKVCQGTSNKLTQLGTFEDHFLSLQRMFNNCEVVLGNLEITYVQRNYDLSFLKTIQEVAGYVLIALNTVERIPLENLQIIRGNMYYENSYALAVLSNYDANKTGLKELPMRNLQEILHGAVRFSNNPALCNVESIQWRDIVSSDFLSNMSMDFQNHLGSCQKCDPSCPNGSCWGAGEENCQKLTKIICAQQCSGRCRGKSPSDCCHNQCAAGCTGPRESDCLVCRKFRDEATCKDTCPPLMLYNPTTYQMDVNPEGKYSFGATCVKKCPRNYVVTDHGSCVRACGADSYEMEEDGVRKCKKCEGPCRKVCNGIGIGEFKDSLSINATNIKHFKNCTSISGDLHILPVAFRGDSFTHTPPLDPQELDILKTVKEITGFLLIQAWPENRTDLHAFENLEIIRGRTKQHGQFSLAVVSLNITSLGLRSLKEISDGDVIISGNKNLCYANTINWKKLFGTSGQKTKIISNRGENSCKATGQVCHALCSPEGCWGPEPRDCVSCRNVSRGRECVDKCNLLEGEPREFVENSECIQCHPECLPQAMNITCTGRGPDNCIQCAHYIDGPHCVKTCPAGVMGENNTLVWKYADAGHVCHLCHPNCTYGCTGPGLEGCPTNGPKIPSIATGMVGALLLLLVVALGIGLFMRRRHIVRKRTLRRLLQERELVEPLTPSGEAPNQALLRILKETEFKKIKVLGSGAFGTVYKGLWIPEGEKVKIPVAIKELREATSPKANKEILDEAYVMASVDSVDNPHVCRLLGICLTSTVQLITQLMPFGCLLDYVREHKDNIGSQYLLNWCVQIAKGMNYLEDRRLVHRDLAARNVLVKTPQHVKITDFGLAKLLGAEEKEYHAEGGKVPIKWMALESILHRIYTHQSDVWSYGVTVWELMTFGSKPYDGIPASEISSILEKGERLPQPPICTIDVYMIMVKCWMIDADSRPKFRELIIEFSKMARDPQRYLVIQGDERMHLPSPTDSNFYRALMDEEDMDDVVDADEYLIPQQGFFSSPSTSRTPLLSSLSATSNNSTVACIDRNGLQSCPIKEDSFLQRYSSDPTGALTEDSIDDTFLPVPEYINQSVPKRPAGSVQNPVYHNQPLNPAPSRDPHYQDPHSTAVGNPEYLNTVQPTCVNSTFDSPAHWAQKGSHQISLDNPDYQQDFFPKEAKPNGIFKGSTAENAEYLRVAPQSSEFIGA

Take `C=CC(=O)Nc1cc(Nc2ncc(-c3ncco3)c(-c3cn(C4CC4)c4ccccc34)n2)c(OC)cc1N(C)CC1CCCN1C` (stereo not shown) [Example 38, N-(5-((4-(1-Cyclopropyl-1H-indol-3-yl)-5-(oxazol-2-yl)pyrimidin-2-yl)amino)-4-methoxy-2-(methyl((1-methylpyrrolidin-2-yl)methyl)amino)phenyl)acrylamide]: the 50% inhibitory concentration (IC50) in experiment [1] was found to be 0.45 nM; in experiment [3] it was 146 nM. Moreover, in experiment [2], the GI50 was 34.6 nM.

Regarding `C=CC(=O)Nc1cc(Nc2ncc(C(=O)OC(C)C)c(-c3cn(C)c4ccccc34)n2)c(OC)cc1N1C[C@H]2CN(C)C[C@H]2C1` [Example 24, Isopropyl 2-((5-acrylamido-2-methoxy-4-(5-methylhexahydropyrrolo[3,4-c]pyrrol-2(1H)-yl)phenyl)amino)-4-(1-methyl-1H-indol-3-yl)pyrimidine-5-carboxylate], the GI50 in experiment [2] came out at 15 nM. Further, the IC50 in experiment [3] is 124 nM.

Regarding `C=CC(=O)Nc1cc(Nc2ncc(-c3ncco3)c(-c3cn(C4CC4)c4ccccc34)n2)c(OC)cc1N1CC[C@@H](N(C)C)C1` [Example 57, (R)—N-(5-((4-(1-Cyclopropyl-1H-indol-3-yl)-5-(oxazol-2-yl)pyrimidin-2-yl)amino)-2-(3-(dimethylamino)pyrrolidin-1-yl)-4-methoxyphenyl)acrylamide], the concentration for half-maximal inhibition (IC50) was 0.82 nM in experiment [1] and 113 nM in experiment [3]. Besides, the GI50 in experiment [2] came to 28.1 nM.

With `C=CC(=O)Nc1cc(Nc2ncc(-c3ncco3)c(-c3cn(C4CC4)c4ccccc34)n2)c(OC)cc1N1CC(N2CCCC2)C1` [Example 53, N-(5-((4-(1-Cyclopropyl-1H-indol-3-yl)-5-(oxazol-2-yl)pyrimidin-2-yl)amino)-4-methoxy-2-(3-(pyrrolidin-1-yl)azetidin-1-yl)phenyl)acrylamide], the IC50 in experiment [1] came to 0.5 nM; in experiment [3], 182 nM. Also, in experiment [2], the GI50 was determined as 21.7 nM.

As for `C=CC(=O)Nc1cc(Nc2ncc(C#N)c(-c3cn(C4CC4)c4cc(OC)c(F)cc34)n2)c(OC)cc1N(C)CCN(C)C` [Example 127, N-(5-((5-Cyano-4-(1-cyclopropyl-5-fluoro-6-methoxy-1H-indol-3-yl)pyrimidin-2-yl)amino)-2-((2-(dimethylamino)ethyl)(methyl)amino)-4-methoxyphenyl)acrylamide], the results for the 50% inhibitory concentration (IC50) in experiment [1] and in experiment [3] were 0.18 nM and 46.6 nM, respectively. In addition, in experiment [2], the GI50 came to 13.4 nM.

As to `C=CC(=O)Nc1cc(Nc2ncc(-c3ncco3)c(-c3cn(C4CC4)c4ccccc34)n2)c(OC)cc1N1CC(N(C)C)C1` [Example 52, N-(5-((4-(1-Cyclopropyl-1H-indol-3-yl)-5-(oxazol-2-yl)pyrimidin-2-yl)amino)-2-(3-(dimethylamino)azetidin-1-yl)-4-methoxyphenyl)acrylamide], the IC50 is 0.79 nM in experiment [1] and 306 nM in experiment [3]. Besides, in experiment [2], the GI50 is 34.9 nM.

With `C=CC(=O)Nc1cc(Nc2ncc(-c3ncco3)c(-c3cn(C4CC4)c4ccccc34)n2)c(OC)cc1N1C[C@H]2CN(C)C[C@H]2C1` [Example 36, N-(5-((4-(1-Cyclopropyl-1H-indol-3-yl)-5-(oxazol-2-yl)pyrimidin-2-yl)amino)-4-methoxy-2-((3aR,6aS)-5-methylhexahydropyrrolo[3,4-c]pyrrol-2(1H)-yl)phenyl)acrylamide], in experiment [2], the GI50 was determined as 27.1 nM. Besides, in experiment [3], the IC50 was 439 nM.

For the compound `C=CC(=O)Nc1cc(Nc2ncc(-c3ncco3)c(-c3cn(C4CC4)c4ccccc34)n2)c(OC)cc1N1C[C@@H]2CCN(C)[C@@H]2C1` (relative stereo) [Example 40, Cis N-(5-((4-(1-Cyclopropyl-1H-indol-3-yl)-5-(oxazol-2-yl)pyrimidin-2-yl)amino)-4-methoxy-2-(1-methylhexahydropyrrolo[3,4-b]pyrrol-5(1H)-yl)phenyl)acrylamide], the results for the IC50 in experiment [1] and in experiment [3] were 0.55 nM and 133 nM, respectively. Besides, the GI50 in experiment [2] came out at 34.6 nM.

On to `C=CC(=O)Nc1cc(Nc2ncc(C#N)c(-c3cn(C4CC4)c4ccccc34)n2)c(OC)cc1N1C[C@H]2CCN(C)[C@H]2C1` [Example 109, N-(5-((5-Cyano-4-(1-cyclopropyl-1H-indol-3-yl)pyrimidin-2-yl)amino)-4-methoxy-2-((3aR,6aR)-1-methylhexahydropyrrolo[3,4-b]pyrrol-5(1H)-yl)phenyl)acrylamide], for which the IC50 in experiment [1] worked out at 0.78 nM; in experiment [3] it was 168 nM. Further, the GI50 in experiment [2] was 49.1 nM.

As to `C=CC(=O)Nc1cc(Nc2ncc(-c3ccn(C)n3)c(-c3cn(C4CC4)c4ccccc34)n2)c(OC)cc1N1C[C@H]2CN(C)C[C@H]2C1` [Example 71, N-(5-((4-(1-Cyclopropyl-1H-indol-3-yl)-5-(1-methyl-1H-pyrazol-3-yl)pyrimidin-2-yl)amino)-4-methoxy-2-((3aR,6aS)-5-methylhexahydropyrrolo[3,4-c]pyrrol-2(1H)-yl)phenyl)acrylamide], the GI50 in experiment [2] turned out to be 54.9 nM. Besides, the IC50 in experiment [3] turned out to be 238 nM.

Turning to `C=CC(=O)Nc1cc(Nc2ncc(C#N)c(-c3cn(C4CC4)c4ccc(OC)cc34)n2)c(OC)cc1N(C)CCN(C)C` [Example 118, N-(5-((5-Cyano-4-(1-cyclopropyl-5-methoxy-1H-indol-3-yl)pyrimidin-2-yl)amino)-2-((2-(dimethylamino)ethyl)(methyl)amino)-4-methoxyphenyl)acrylamide], the IC50 worked out at 0.55 nM in experiment [1] and 201 nM in experiment [3]. In addition, the GI50 in experiment [2] came out at 45.1 nM.

On to `C=CC(=O)Nc1cc(Nc2ncc(C#N)c(-c3cn(C4COC4)c4cc(OC)ccc34)n2)c(OC)cc1N(C)CCN(C)C` [Example 137, N-(5-((5-Cyano-4-(6-methoxy-1-(oxetan-3-yl)-1H-indol-3-yl)pyrimidin-2-yl)amino)-2-((2-(dimethylamino)ethyl)(methyl)amino)-4-methoxyphenyl)acrylamide], for which the results for the IC50 in experiment [1] and in experiment [3] were 0.16 nM and 18.2 nM, respectively. The GI50 in experiment [2] is 9.78 nM.

Regarding `C=CC(=O)Nc1cc(Nc2ncc(C#N)c(-c3cn(C4COC4)c4ccccc34)n2)c(OC)cc1N(C)CCN(C)C` [Example 111, N-(5-((5-cyano-4-(1-(oxetan-3-yl)-1H-indol-3-yl)pyrimidin-2-yl)amino)-2-((2-(dimethylamino)ethyl)(methyl)amino)-4-methoxyphenyl)acrylamide], the half-maximal inhibitory concentration (IC50) in experiment [1] came out at 0.18 nM; in experiment [3], 34.1 nM. Further, the GI50 in experiment [2] was 21.2 nM.

Take `C=CC(=O)Nc1cc(Nc2ncc(-c3ncco3)c(-c3cn(C4CC4)c4ccccc34)n2)c(OC)cc1N1CC[C@H](N(C)C)C1` [Example 56, (S)—N-(5-((4-(1-Cyclopropyl-1H-indol-3-yl)-5-(oxazol-2-yl)pyrimidin-2-yl)amino)-2-(3-(dimethylamino)pyrrolidin-1-yl)-4-methoxyphenyl)acrylamide]: the GI50 in experiment [2] came out at 45.3 nM. In experiment [3], the half-maximal inhibitory concentration (IC50) was 144 nM.

`C=CC(=O)Nc1cc(Nc2ncc(-c3ccccc3)c(-c3cn(C4CC4)c4ccccc34)n2)c(OC)cc1N1C[C@H]2CN(C)C[C@H]2C1` [Example 47, N-(5-((4-(1-Cyclopropyl-1H-indol-3-yl)-5-phenylpyrimidin-2-yl)amino)-4-methoxy-2-((3aR,6aS)-5-methylhexahydropyrrolo[3,4-c]pyrrol-2(1H)-yl)phenyl)acrylamide]: the GI50 in experiment [2] is 33.1 nM. Also, the IC50 in experiment [3] was found to be 51.7 nM.

The record behind these values is patent publication US20220340547A1, “INDOLE DERIVATIVE-CONTAINING INHIBITOR, PREPARATION METHOD THEREFOR AND APPLICATION THEREOF” (Shanghi Hansoh Biosoh Biomedical Co., Ltd., priority 2019, published 2022).
